From PubChem BioAssay (NCI)
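Assay format: 96-well plates, 48-hour exposure. GI50 is the concentration that inhibits growth by half. TGI marks complete inhibition of growth.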

Assays:
Experiment in all cases: DTP human tumour cell line panel, 48 h
[1] = tested on: NCI-H522 lung
[2] = tested on: ACHN renal
[3] = tested on: UO-31 renal
[4] = tested on: M14 melanoma
[5] = tested on: CAKI-1 renal
[6] = tested on: HS 578T breast
[7] = tested on: NCI-H460 lung
[8] = tested on: NCI-H23 lung
[9] = tested on: MDA-MB-231 breast
[10] = tested on: OVCAR-8 ovarian
[11] = tested on: MDA-MB-435
[12] = tested on: IGROV1 ovarian
[13] = tested on: HL-60(TB) leukemia
[14] = tested on: SN12C renal
[15] = tested on: SR leukemia
[16] = tested on: MALME-3M melanoma
[17] = tested on: NCI-H226 lung
[18] = tested on: T-47D breast
[19] = tested on: CCRF-CEM leukemia
[20] = tested on: KM12 colon
[21] = tested on: HCT-15 colon
[22] = tested on: MCF7 breast
[23] = tested on: COLO 205 colon
[24] = tested on: RXF 393 renal
[25] = tested on: K-562 leukemia
[26] = tested on: BT-549 breast
[27] = tested on: OVCAR-4 ovarian
[28] = tested on: SF-539 CNS
[29] = tested on: HOP-92 NSCLC
[30] = tested on: UACC-62 melanoma
[31] = tested on: HCT-116 colon
[32] = tested on: 786-0 renal
[33] = tested on: HCC-2998 colon
[34] = tested on: MOLT-4 leukemia
[35] = tested on: SK-MEL-5 melanoma
[36] = tested on: TK-10 renal
[37] = tested on: SW-620 colon
[38] = tested on: OVCAR-5 ovarian
[39] = tested on: EKVX NSCLC
[40] = tested on: A549 NSCLC
[41] = tested on: SNB-19 CNS
[42] = tested on: MDA-MB-468 breast
[43] = tested on: DU-145 prostate
[44] = tested on: U251 CNS
[45] = tested on: SK-MEL-2 melanoma
[46] = tested on: NCI/ADR-RES ovarian
[47] = tested on: SK-OV-3 ovarian
[48] = tested on: SNB-75 CNS
[49] = tested on: SF-268 CNS
[50] = tested on: RPMI-8226 leukemia
[51] = tested on: SK-MEL-28 melanoma
[52] = tested on: LOX IMVI melanoma
[53] = tested on: HOP-62 NSCLC
[54] = tested on: OVCAR-3 ovarian
[55] = tested on: PC-3 prostate
[56] = tested on: SF-295 CNS
[57] = tested on: A498 renal
[58] = tested on: UACC-257 melanoma
[59] = tested on: HT29 colon

FC(F)(F)c1cc2c(Cl)ncnc2n1CCC1CCOCC1
GI50 [1]: 1.68 µM
TGI [1]: 3.68 µM
GI50 [2]: 11.1 µM
TGI [2]: 26 µM
GI50 [3]: 1.79 µM
TGI [3]: 3.79 µM
GI50 [4]: 3.76 µM
TGI [4]: 16.2 µM
GI50 [5]: 14.6 µM
TGI [5]: 30.2 µM
GI50 [6]: 12.1 µM
TGI [6]: 45.5 µM
GI50 [7]: 2.42 µM
TGI [7]: 5.66 µM
GI50 [8]: 2.59 µM
TGI [8]: 10 µM
GI50 [9]: 3.9 µM
TGI [9]: 14 µM
GI50 [10]: 2.44 µM
TGI [10]: 7.33 µM
GI50 [11]: 5.01 µM
TGI [11]: 18.3 µM
GI50 [12]: 1.78 µM
TGI [12]: 3.49 µM
GI50 [13]: 2.21 µM
TGI [13]: 5.07 µM
GI50 [14]: 6.67 µM
TGI [14]: 19.8 µM
GI50 [15]: 2.05 µM
TGI [15]: 5.32 µM
GI50 [16]: 15.2 µM
TGI [16]: 29.2 µM
GI50 [17]: 13.9 µM
TGI [17]: 28.5 µM
GI50 [18]: 20.2 µM
TGI [18]: 59.6 µM
GI50 [19]: 1.41 µM
TGI [19]: 4.56 µM
GI50 [20]: 16.3 µM
TGI [20]: 33.9 µM
GI50 [21]: 2.93 µM
TGI [21]: 11 µM
GI50 [22]: 11.5 µM
TGI [22]: 36.4 µM
GI50 [23]: 16.4 µM
TGI [23]: 37.2 µM
GI50 [24]: 8.75 µM
TGI [24]: 22.1 µM
GI50 [25]: 2.84 µM
TGI [25]: 8.66 µM
GI50 [26]: 10.2 µM
TGI [26]: 22.6 µM
GI50 [27]: 18.5 µM
TGI [27]: 50.1 µM
GI50 [28]: 13.6 µM
TGI [28]: 27.7 µM
GI50 [29]: 13.9 µM
TGI [29]: 32.3 µM
GI50 [30]: 4.23 µM
TGI [30]: 15.7 µM
GI50 [31]: 2.36 µM
TGI [31]: 6.48 µM
GI50 [32]: 16.1 µM
TGI [32]: 32.4 µM
GI50 [33]: 1.63 µM
TGI [33]: 3.03 µM
GI50 [34]: 2.35 µM
TGI [34]: 5.45 µM
GI50 [35]: 2.79 µM
TGI [35]: 9.23 µM
GI50 [36]: 17.4 µM
TGI [36]: 36.7 µM
GI50 [37]: 11.9 µM
TGI [37]: 28.5 µM
GI50 [38]: 24.1 µM
TGI [38]: 81.9 µM
GI50 [39]: 12.6 µM
TGI [39]: 28.5 µM
GI50 [40]: 22 µM
TGI [40]: 56.9 µM
GI50 [41]: 5.21 µM
TGI [41]: 18.1 µM
GI50 [42]: 1.66 µM
TGI [42]: 3.44 µM
GI50 [43]: 4.35 µM
TGI [43]: 15.1 µM
GI50 [44]: 2.07 µM
TGI [44]: 5.58 µM
GI50 [45]: 13.2 µM
TGI [45]: 28.2 µM
GI50 [46]: 17 µM
TGI [46]: 35.1 µM
GI50 [47]: 17.3 µM
TGI [47]: 33.3 µM
GI50 [48]: 3.09 µM
TGI [48]: 15.1 µM
GI50 [49]: 2.45 µM
TGI [49]: 7.28 µM
GI50 [50]: 14.6 µM
TGI [50]: 41.4 µM
GI50 [51]: 2.6 µM
TGI [51]: 6 µM
GI50 [52]: 1.63 µM
TGI [52]: 2.99 µM
GI50 [53]: 17 µM
TGI [53]: 35.1 µM
GI50 [54]: 12.2 µM
TGI [54]: 27.4 µM
GI50 [55]: 2.97 µM
TGI [55]: 11.3 µM
GI50 [56]: 14 µM
TGI [56]: 27.9 µM
GI50 [57]: 16.2 µM
TGI [57]: 29.9 µM
GI50 [58]: 3.56 µM
TGI [58]: 15.7 µM
GI50 [59]: 13.9 µM
TGI [59]: 44.2 µM
